Target: human PDE10A2 (Homo sapiens (Human), UniProt Q9Y233)
Assay: PDE10 fluorescence polarization (IMAP FP) inhibition assay
Format: biochemical
Details: apparent inhibition constant, FAM-labeled cAMP substrate 50 nM, room temperature
Description: The activity of the compounds in accordance with the present invention as PDE10 inhibitors may be readily determined without undue experimentation using a fluorescence polarization (FP) methodology that is well known in the art (Huang, W., et al., J. Biomol Screen, 2002, 7: 215).
In a typical experiment the PDE10 inhibitory activity of the compounds of the present invention was determined in accordance with the following experimental method. PDE10A2 was amplified from human fetal brain cDNA (Clontech, Mountain View, Calif.) using a forward primer corresponding to nucleotides 56-77 of human PDE10A2 (Accession No. AF127480, Genbank Identifier 4894716), containing a Kozak consensus sequence, and a reverse primer corresponding to nucleotides 2406-2413 of human PDE10A2 (Accession No. AF127480, Genbank Identifier 4894716). Amplification with Easy-A polymerase (Stratagene, La Jolla, Calif.) was 95° C. for 2 minutes followed by thirty three cycles of 95° C. for 40 seconds, 55° C. for 30 seconds, and 72° C. for 2 minutes 48 seconds. Final extension was 72° C. for 7 minutes. The PCR product was TA cloned into pcDNA3.2-TOPO (Invitrogen, Carlsbad, Calif.) according to standard protocol. AD293 cells with 70-80% confluency were transiently transfected with human PDE10A2/pcDNA3.2-TOPO using Lipofectamine 2000 according to manufacturer specifications (Invitrogen, Carlsbad, Calif.). Cells were harvested 48 hours post-transfection and lysed by sonication (setting 3, 10×5 sec pulses) in a buffer containing 20 mM HEPES, 1 mM EDTA and protease inhibitor cocktail (Roche). Lysate was collected by centrifugation at 75,000×g for 20 minutes. Supernatant containing the cytoplasmic fraction was used for evaluation of PDE10A2 activity. The fluorescence polarization assay for cyclic nucleotide phosphodiesterases was performed using an IMAP® FP kit supplied by Molecular Devices, Sunnyvale, Calif. (product # R8139). IMAP® technology has been applied previously to phosphodiesterase assays (Huang, W., et al., J. Biomol Screen, 2002, 7: 215). Assays were performed at room temperature in 384-well microtiter plates with an incubation volume of 20.2 μL. Solutions of test compounds were prepared in DMSO and serially diluted with DMSO to yield 8 μL of each of 10 solutions differing by 3-fold in concentration, at 32 serial dilutions per plate. 100% inhibition is determined using a known PDE10 inhibitor, which can be any compound that is present at 5,000 times its Ki value in the assay described as follows, such as papaverine (see Siuciak, et al. Neuropharmacology (2006) 51:386-396; Becker, et al. Behav Brain Res (2008) 186(2):155-60; Threlfell, et al., J Pharmacol Exp Ther (2009) 328(3):785-795), 2-{4-[pyridin-4-yl-1-(2,2,2-trifluoroethyl)-1H-pyrazol-3-yl]phenoxymethyl}quinoline succinic acid or 2-[4-(1-methyl-4-pyridin-4-yl-1H-pyrazol-3-yl)-phenoxymethyl]quinoline succinic acid (see Schmidt, et al. J Pharmacol Exp Ther (2008) 325:681-690; Threlfell, et al., J Pharmacol Exp Ther (2009) 328(3): 785-795). 0% of inhibition is determined by using DMSO (1% final concentrations). A Labcyte Echo 555 (Labcyte, Sunnyvale, Calif.) is used to dispense […] from each well of the titration plate to the 384 well assay plate. A solution of enzyme (1/7000 dilution from aliquots; sufficient to produce 20% substrate conversion) and a separate solution of FAM-labeled cAMP PDE from Molecular Devices (product # R7506), at a final concentration of 50 nM are made in the assay buffer (10 mM Tris HCl, pH 7.2, 10 mM MgCl2, 0.05% NaN3 0.01% Tween-20, and 1 mM DTT). The enzyme is added to the assay plates by the addition of 10 μL of enzyme solution to each well, shaken to mix and incubated at room temperature for 60 minutes. The substrate is then added to the assay plates by the addition of 10 μL of substrate solution to each well, shaken to mix, and incubated at room temperature for 60 minutes. […]

Sequence of human PDE10A2 (Q9Y233 267-1055): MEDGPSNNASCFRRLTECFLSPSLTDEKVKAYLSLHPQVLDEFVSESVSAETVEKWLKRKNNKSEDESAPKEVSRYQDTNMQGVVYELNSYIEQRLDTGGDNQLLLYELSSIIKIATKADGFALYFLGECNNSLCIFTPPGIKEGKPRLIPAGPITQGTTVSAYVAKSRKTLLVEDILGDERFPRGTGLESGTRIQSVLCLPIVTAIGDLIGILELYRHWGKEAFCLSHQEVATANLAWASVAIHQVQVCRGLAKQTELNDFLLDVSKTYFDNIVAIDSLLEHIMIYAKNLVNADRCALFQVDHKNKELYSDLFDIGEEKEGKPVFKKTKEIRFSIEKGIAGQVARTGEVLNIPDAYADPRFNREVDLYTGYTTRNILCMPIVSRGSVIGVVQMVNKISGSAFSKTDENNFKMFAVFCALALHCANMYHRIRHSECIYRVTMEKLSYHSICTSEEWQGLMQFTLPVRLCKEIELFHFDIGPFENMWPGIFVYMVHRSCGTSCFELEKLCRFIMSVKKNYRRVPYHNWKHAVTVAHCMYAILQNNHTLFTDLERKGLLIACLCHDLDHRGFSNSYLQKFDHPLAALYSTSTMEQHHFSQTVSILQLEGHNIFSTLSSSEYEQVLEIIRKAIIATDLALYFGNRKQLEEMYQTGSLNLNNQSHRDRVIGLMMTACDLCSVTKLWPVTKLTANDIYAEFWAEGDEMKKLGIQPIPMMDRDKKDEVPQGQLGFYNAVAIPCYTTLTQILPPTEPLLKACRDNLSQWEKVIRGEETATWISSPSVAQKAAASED

Row | SMILES | Ki [nM]
1 | Cc1cnn(-c2cc(N3CC(c4nc5ccccc5n4C)C3)nc(C)n2)n1 [Example 28, 1-methyl-2-(1-(2-methyl-6-(4-methyl-2H-1,2,3-triazol-2-yl)pyrimidin-4-yl)azetidin-3-yl)-1H-benzo[d]imidazole] | 1.7
2 | COc1ccn(-c2cc(N3CC(c4nc5ccccc5n4C)C3)nc(C)n2)n1 [Example 12, 2-(1-(6-(3-methoxy-1H-pyrazol-1-yl)-2-methylpyrimidin-4-yl)azetidin-3-yl)-1-methyl-1H-benzo[d]imidazole] | 4.7
3 | Cc1nc(N2CC(c3nc4ccccc4n3C)C2)cc(-n2cc(C(F)(F)F)cn2)n1 [Example 16, 1-methyl-2-(1-(2-methyl-6-(4-(trifluoromethyl)-1H-pyrazol-1-yl)pyrimidin-4-yl)azetidin-3-yl)-1H-benzo[d]imidazole] | 2.7
4 | Cc1nc(N2CC(c3nc4ccccc4n3C)C2)cc(-n2nc(C)nc2C(C)C)n1 [Example 39, 2-(1-(6-(5-isopropyl-3-methyl-1H-1,2,4-triazol-1-yl)-2-methylpyrimidin-4-yl)azetidin-3-yl)-1-methyl-1H-benzo[d]imidazole] | 3.1
5 | Cc1nc(N2CC(c3nc4ccccc4n3CCC#N)C2)cc(-n2nc(C)nc2C)n1 [Example 119, 3-(2-(1-(6-(3,5-dimethyl-1H-1,2,4-triazol-1-yl)-2-methylpyrimidin-4-yl)azetidin-3-yl)-1H-benzo[d]imidazol-1-yl)propanenitrile] | 5
6 | Cc1nc(C)n(-c2cc(N3CC(c4nc5ccccc5n4C)C3)nc(OC(C)C)n2)n1 [Example 70, 2-{1-[6-(3,5-dimethyl-1H-1,2,4-triazol-1-yl)-2-isopropoxypyimidin-4-yl]azetidin-3-yl}-1-methyl-1H-benzimidazole] | 0.38
7 | Cc1nc(N2CC(c3nc4ccccc4n3C)C2)cc(-n2cc(C#N)cn2)n1 [Example 17, 1-(2-methyl-6-(3-(1-methyl-1H-benzo[d]imidazol-2-yl)azetidin-1-yl)pyrimidin-4-yl)-1H-pyrazole-4-carbonitrile] | 4.2
8 | Cc1nc(C)n(-c2cc(N3CC(c4nc5ccccc5n4C)C3)nc(C#N)n2)n1 [Example 79, 4-(3,5-dimethyl-1H-1,2,4-triazol-1-yl)-6-[3-(1-methyl-1H-benzimidazol-2-yl)azetidin-1-yl]pyrimidine-2-carbonitrile] | 0.28
9 | COc1cccnc1-c1cc(N2CC(c3nc4ccccc4n3C)C2)nc(C)n1 [Example 100, 2-(1-(6-(3-methoxypyridin-2-yl)-2-methylpyrimidin-4-yl)azetidin-3-yl)-1-methyl-1H-benzo[d]imidazole] | 41
10 | Cc1cnn(-c2cc(N3CC(c4nc5ccccc5n4C)C3)nc(C)n2)c1 [Example 2, 1-methyl-2-(1-(2-methyl-6-(4-methyl-1H-pyrazol-1-yl)pyrimidin-4-yl)azetidin-3-yl)-1H-benzo[d]imidazole] | 0.61
11 | CCc1nc(C)nn1-c1cc(N2CC(c3nc4ccccc4n3C)C2)nc(C)n1 [Example 35, 2-(1-(6-(5-ethyl-3-methyl-1H-1,2,4-triazol-1-yl)-2-methylpyrimidin-4-yl)azetidin-3-yl)-1-methyl-1H-benzo[d]imidazole] | 0.81
12 | Cc1nc(N2CC(c3nc4ccccc4n3C)C2)cc(-n2nc(C)nc2C[C@H](C)O)n1 [Example 40, (S)-1-(3-methyl-1-(2-methyl-6-(3-(1-methyl-1H-benzo[d]imidazol-2-yl)azetidin-1-yl)pyrimidin-4-yl)-1H-1,2,4-triazol-5-yl)propan-2-ol] | 2
13 | Cc1nc(N2CC(c3nc4c(F)cccc4n3C)C2)cc(-n2nc(C)nc2C)n1 [Example 122, 2-(1-(6-(3,5-dimethyl-1H-1,2,4-triazol-1-yl)-2-methylpyrimidin-4-yl)azetidin-3-yl)-4-fluoro-1-methyl-1H-benzo[d]imidazole] | 17
14 | Cc1cccc(-c2cc(N3CC(c4nc5ccccc5n4C)C3)nc(C)n2)n1 [Example 98, 1-methyl-2-(1-(2-methyl-6-(6-methylpyridin-2-yl)pyrimidin-4-yl)azetidin-3-yl)-1H-benzo[d]imidazole] | 5.5
15 | Cc1nc(N2CC(c3nc4cccc(C)c4[nH]3)C2)cc(-n2nc(C)nc2C)n1 [Example 110, 2-(1-(6-(3,5-dimethyl-1H-1,2,4-triazol-1-yl)-2-methylpyrimidin-4-yl)azetidin-3-yl)-7-methyl-1H-benzo[d]imidazole] | 17
16 | Cc1nc(C2CCOCC2)n(-c2cc(N3CC(c4nc5ccccc5n4C)C3)nc(C(F)(F)F)n2)n1 [Example 69, 1-methyl-2-(1-(6-(3-methyl-5-(tetrahydro-2H-pyran-4-yl)-1H-1,2,4-triazol-1-yl)-2-(trifluoromethyl)pyrimidin-4-yl)azetidin-3-yl)-1H-benzo[d]imidazole] | 1.8
17 | Cc1nc(N2CC(c3nc4ccccc4[nH]3)C2)cc(-n2nc(C)nc2C)n1 [Example 107, 2-(1-(6-(3,5-Dimethyl-1H-1,2,4-triazol-1-yl)-2-methylpyrimidin-4-yl)azetidin-3-yl)-1H-benzo[d]imidazole] | 5.8
18 | Cc1nc(N2CC(c3nc4c(C)cccc4n3C)C2)cc(-n2nc(C)nc2C)n1 [Example 124, 2-(1-(6-(3,5-dimethyl-1H-1,2,4-triazol-1-yl)-2-methylpyrimidin-4-yl)azetidin-3-yl)-1,4-dimethyl-1H-benzo[d]imidazole] | 22
19 | COCCc1nc(C)nn1-c1cc(N2CC(c3nc4ccccc4n3C)C2)nc(C)n1 [Example 42, 2-(1-(6-(5-(2-methoxyethyl)-3-methyl-1H-1,2,4-triazol-1-yl)-2-methylpyrimidin-4-yl)azetidin-3-yl)-1-methyl-1H-benzo[d]imidazole] | 1.9
20 | Cc1nc(-c2nccs2)cc(N2CC(c3nc4ccccc4n3C)C2)n1 [Example 105, 2-(2-methyl-6-(3-(1-methyl-1H-benzo[d]imidazol-2-yl)azetidin-1-yl)pyrimidin-4-yl)thiazole] | 2.2
21 | Cc1cn(-c2cc(N3CC(c4nc5ccccc5n4C)C3)nc(C3CC3)n2)nn1 [Example 32, 2-(1-(2-cyclopropyl-6-(4-methyl-1H-1,2,3-triazol-1-yl)pyrimidin-4-yl)azetidin-3-yl)-1-methyl-1H-benzo[d]imidazole] | 1.1
22 | Cc1nc(N2CC(c3nc4ccccc4n3C)C2)cc(-n2nc(C)nc2Cc2cc(F)ccc2F)n1 [Example 57, 2-(1-(6-(5-(2,5-difluorobenzyl)-3-methyl-1H-1,2,4-triazol-1-yl)-2-methylpyrimidin-4-yl)azetidin-3-yl)-1-methyl-1H-benzo[d]imidazole] | 0.065
23 | CCOC(=O)Cc1nc(N2CC(c3nc4ccccc4n3C)C2)cc(-n2nc(C)nc2C)n1 [Example 26, ethyl 2-(4-(3,5-dimethyl-1H-1,2,4-triazol-1-yl)-6-(3-(1-methyl-1H-benzo[d]imidazol-2-yl)azetidin-1-yl)pyrimidin-2-yl)acetate] | 3.1
24 | Cc1nc(N2CC(c3nc4cccc(C(F)(F)F)c4[nH]3)C2)cc(-n2nc(C)nc2C)n1 [Example 112, 2-(1-(6-(3,5-dimethyl-1H-1,2,4-triazol-1-yl)-2-methylpyrimidin-4-yl)azetidin-3-yl)-7-(trifluoromethyl)-1H-benzo[d]imidazole] | > 75
25 | Cc1nc(-c2ccncc2)cc(N2CC(c3nc4ccccc4n3C)C2)n1 [Example 86, 1-methyl-2-(1-(2-methyl-6-(pyridin-4-yl)pyrimidin-4-yl)azetidin-3-yl)-1H-benzo[d]imidazole] | 46

From US9365562B2, “1,3 substituted azetidine PDE10 inhibitors” (Merck Sharp & Dohme Corp., priority 2011, dated 2016)
